Square brackets hold non-standard residues; d marks the D form. Ends that are not written are not given here. * marks the point of attachment. Aib = CC(C)(N)C(=O)O; BrAc = O=C(CBr)*

Usually Emax stands for the maximal effect, on the per cent scale that the assay sets.

T1 sequence (P43220 24-463): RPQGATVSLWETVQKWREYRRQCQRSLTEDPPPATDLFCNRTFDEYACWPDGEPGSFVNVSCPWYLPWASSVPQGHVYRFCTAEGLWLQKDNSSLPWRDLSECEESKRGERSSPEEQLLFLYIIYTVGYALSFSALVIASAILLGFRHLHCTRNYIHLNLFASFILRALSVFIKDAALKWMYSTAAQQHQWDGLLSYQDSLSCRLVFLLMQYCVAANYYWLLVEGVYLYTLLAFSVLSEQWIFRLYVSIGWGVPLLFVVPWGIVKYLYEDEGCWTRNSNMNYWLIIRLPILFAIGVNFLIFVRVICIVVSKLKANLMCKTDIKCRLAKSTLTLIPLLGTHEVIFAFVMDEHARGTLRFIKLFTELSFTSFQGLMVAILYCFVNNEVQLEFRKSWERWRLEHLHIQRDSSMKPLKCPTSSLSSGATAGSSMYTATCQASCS

The assay addresses T1, human GLP1R (Homo sapiens, UniProt P43220).
T1 construct: expressed in transfected cells; host or cells: CHO
As to the kind of experiment: GLP1R agonist cAMP assay in CHO cells stably expressing human GLP1R. The format is cell-based. The conditions noted are these: relative to maximal effect of human GLP-1, read-out: GLP1R agonist mode Emax (%). The protocol: cAMP assay: The in vitro agonist potency of the peptides disclosed herein was evaluated using a cell-based assay measuring cAMP production. CHO cells stably expressing human GLP1R, or both human GIPR and GLP1R, were incubated with increasing concentrations of agonists for 30 minutes at 37° C. Cells were lysed and cAMP was detected using a homogenous time resolved fluorescence detection kit, as described by the manufacturer (Revvity). […] The EC50 and maximum effect (Emax) values were then determined from the normalized effects and agonist concentrations using a four-parameter logistic equation (GraphPad Prism).
As for `CC[C@H](C)[C@H](NC(=O)[C@H](Cc1ccccc1)NC(=O)[C@H](CCC(=O)O)NC(=O)[C@H](CCCCN)NC(=O)[C@H](C)NC(=O)[C@H](C)NC(=O)[C@H](CCC(N)=O)NC(=O)[C@H](CCC(=O)O)NC(=O)[C@H](CCC(=O)O)NC(=O)[C@H](CC(C)C)NC(=O)[C@H](Cc1ccc(O)cc1)NC(=O)[C@H](CO)NC(=O)[C@H](CO)NC(=O)[C@H](Cc1ccc(O)cc1)NC(=O)[C@H](CC(=O)O)NC(=O)[C@H](CO)NC(=O)[C@@H](NC(=O)[C@H](Cc1ccccc1)NC(=O)[C@@H](NC(=O)CNC(=O)[C@H](CCC(=O)O)NC(=O)C(C)(C)NC(=O)[C@@H](N)Cc1c[nH]cn1)[C@@H](C)O)[C@@H](C)O)C(=O)N[C@@H](C)C(=O)N[C@@H](Cc1c[nH]c2ccccc12)C(=O)N[C@@H](CC(C)C)C(=O)N[C@H](C(=O)N[C@@H](CCCCN)C(=O)NCC(=O)NCC(=O)NCC(=O)NCC(=O)NCC(=O)NCC(=O)NCC(=O)N[C@@H](CO)C(=O)NCC(=O)NCC(=O)NCC(=O)NCC(=O)N[C@@H](CO)C(=O)NCC(=O)NCC(=O)NCC(=O)NCC(=O)N[C@@H](CO)C(=O)N[C@@H](CCCCNC(=O)CBr)C(N)=O)C(C)C` [compound 154], the Emax was 122%.
Then “H[Aib]EGTFTSDVSSYLEEQAAKEFIAWLVKGGGGGGGSGGGGSGGGGSK(BrAc)-NH2 (C-terminus assumed) [compound 153]”, with 109%; and “H[Aib]EGTFTSDYSSYLEEQAAKEFIAWLVKGRGGGGGSGGGGSGGGGSK(BrAc)-NH2 (C-terminus assumed) [compound 151]”, with 109%.
For “H[Aib]EGTFTSDYSSYLE[Aib]QAAKEFIAWLVKGRGGGGGSGGGGSGGGGSK(BrAc)-NH2 (C-terminus assumed) [compound 152]”, the Emax came to 107%.

(Values after US20250163168A1, “NOVEL ANTIBODIES AND ANTIBODY CONJUGATES FOR THE TREATMENT OF METABOLIC DISORDERS” (PFIZER INC., priority 2023, published 2025).)
